US20250281497A1, “FUSED AMINO PYRIMIDINE COMPOUNDS FOR TREATMENT OF SEIZURE DISORDERS” (Ovid Therapeutics Inc., priority 2024, published 2025)

Tests used:
brain slices = test: In vitro seizure assay, brain slices in 0-Mg ACSF, field recording in entorhinal cortex; design: species or system mice; settings: Compound A 1 μM
From the text: In vitro seizure assays. […] Slices were then transferred to a Warner Instruments recording chamber and electrodes of 0.5-1 mohm were inserted into layer IIII of the medial entorhinal cortex, several cell layers deep. […] The field recordings were then employed to monitor the development of seizure-like events (SLEs) and their transition to late recurrent discharges (LRDs) which are believed to be analogous to the development of status epilepticus (SE) (Kelley et al., 2016, supra; Moore et al., 2018, supra).

KCC4 = biological target: T1, KCC4 (Homo sapiens, UniProt Q9Y666); test: Tl+ assay, HEK-293 cells expressing KCC4; format: cell-based; settings: read-out: concentration at which effects on KCC4 were seen (EC50 chart FIG. 1G)
T1 construct: expressed in transfected cells; host or cells: HEK-293
T1 sequence (Q9Y666 1-1083): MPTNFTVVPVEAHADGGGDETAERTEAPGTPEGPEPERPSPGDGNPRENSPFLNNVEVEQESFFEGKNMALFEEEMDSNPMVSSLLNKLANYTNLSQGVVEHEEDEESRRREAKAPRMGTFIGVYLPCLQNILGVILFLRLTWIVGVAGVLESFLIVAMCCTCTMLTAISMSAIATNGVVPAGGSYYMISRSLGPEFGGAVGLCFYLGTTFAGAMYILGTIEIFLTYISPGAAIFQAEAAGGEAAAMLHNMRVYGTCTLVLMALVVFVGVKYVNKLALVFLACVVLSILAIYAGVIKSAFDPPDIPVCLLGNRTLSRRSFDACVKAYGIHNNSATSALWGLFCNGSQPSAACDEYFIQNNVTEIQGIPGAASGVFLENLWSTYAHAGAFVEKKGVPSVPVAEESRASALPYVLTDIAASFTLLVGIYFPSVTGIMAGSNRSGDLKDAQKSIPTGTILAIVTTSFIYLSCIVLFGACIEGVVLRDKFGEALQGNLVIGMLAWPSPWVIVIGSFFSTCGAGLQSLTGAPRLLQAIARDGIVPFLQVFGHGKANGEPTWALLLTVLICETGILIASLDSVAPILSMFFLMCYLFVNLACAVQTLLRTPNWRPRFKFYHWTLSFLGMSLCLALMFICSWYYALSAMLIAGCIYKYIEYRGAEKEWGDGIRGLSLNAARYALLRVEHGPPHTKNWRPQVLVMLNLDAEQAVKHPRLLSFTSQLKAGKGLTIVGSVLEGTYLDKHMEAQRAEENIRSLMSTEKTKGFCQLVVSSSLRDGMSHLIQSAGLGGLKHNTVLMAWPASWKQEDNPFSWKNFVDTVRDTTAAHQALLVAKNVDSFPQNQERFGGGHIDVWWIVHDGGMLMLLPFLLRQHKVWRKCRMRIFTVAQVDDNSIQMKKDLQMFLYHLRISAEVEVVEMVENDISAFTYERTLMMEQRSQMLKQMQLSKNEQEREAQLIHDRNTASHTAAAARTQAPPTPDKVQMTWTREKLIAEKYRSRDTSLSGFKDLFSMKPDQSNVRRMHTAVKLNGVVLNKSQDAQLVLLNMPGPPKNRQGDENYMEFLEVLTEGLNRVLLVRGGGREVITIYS
Procedure: FLIPR TI Flux assay. HEK-293 cells were washed with HBSS, and then incubated with loading buffer containing TI sensitive fluorescent dye (https://www.moleculardevices.com), 20 μM bumetanide 20 μM ouabain and 2.5 mM probenecid for 1 h at room temperature (RT) under control conditions or with drugs in the dark using a FlexStation 3 microplate reader (Molecular Devices) and imaged […] for 30 min. Stimulus buffer was added containing 5 mM K^+/0.5 mM Tl^+ and cells were imaged every 1.5 over a 190 second time course The initial rate Tl^+ uptake (Relative Fluorescence Units (RFU) per second) was determined following addition of the stimulus buffer as outlined previously (Conway et at, 2017, supra) (Lee et at, 2022, supra).
Several studies have shown that the activity and plasma membrane accumulation of KCC2 is potentiated via phosphorylation of S940, a process mediated by the activity of protein kinase C and protein phosphatase 1 (Lee et al., 2011, supra; Lee et al., J Biol Chem 282, 29777-29784 (2007); Moore et al., Proc. Natl. Acad. Sci. U.S.A. 115, 10166-10171 (2018); Moore et al., Trends Neurosci. 40, 555-571 (2017); Silayeva et al., Proc. Natl. Acad. Sci. U.S.A. 112, 3523-3528 (2015)). […] Compared to KCC2, effects on KCC3, KCC4, and NKCC1 were only seen at concentrations more than 35-fold that of KCC2 (>100 μM) (FIG. 1G).

hippocampal neurons = test: Gramicidin perforated patch clamp, EGABA in hippocampal neurons; format: cell-based, Sprague Dawley; settings: 300 nM
Procedure: Neuronal Cultures. Hippocampal neurons were prepared from Sprague Dawley E18 embryos and plated at 450,000 per dish and maintained at 37° C. in a humidified 5% CO2 incubator for 10-25 days before experimentation (Lee et al., Nat. Neurosci. 14, 736-743 (2011)).
At this developmental stage, GABAAR receptor activation leads to hyperpolarization, a phenomenon critically dependent upon KCC2 (Kontou et al., J Biol Chem, 100364 (2021)).
Neuronal Patch clamp assays. Neuronal cell culture recordings were performed in bath saline at 34° C. For gramicidin perforated-patch experiments, pipettes contained (in mM): 140 KCl and 10 HEPES, pH 7.4 KOH. For whole-cell experiments, pipettes contained (in mM): 115 K-meth-SO^4, 30 KCl, 2 Mg-ATP, 4 Na-ATP, 0.4 Na-GTP, and 10 HEPES, pH 7.4 KOH. Bath saline contained the following (in mM): 140 NaCl, 2.5 KCl, 2.5 CaCl2, 2.5 MgCl2, 10 HEPES, and 11 glucose, pH 7.4 NaOH (Kontou et at, 2021, supra). All compound solutions were applied to cells using a three-barreled 700 μm pipe positioned just above the cell (Warner Instruments). […] All voltages from whole-cell experiments were corrected offline using a calculated liquid junction potential value (13.6 mV) in Clampex (Molecular Devices). For gramicidin perforated-patch experiments, intracellular Cl^− values were back-calculated using measured EGABA values and the Nernst equation: […]

`C[C@@H]1CN(c2nc3c(c(Nc4ccc(C5CCCCC5)cc4)n2)COC3)CCO1` [Compound A, (R)—N-(4-cyclohexylphenyl)-2-(2-methylmorpholino)-5,7-dihydrofuro[3,4-d]pyrimidin-4-amine] was tested, and the “time to first seizure-like event (SLE)” value (brain slices; vehicle=10.5±2.6) was 11.3 ± 3.3 min, the “time to late recurrent discharges (LRDs)” value (brain slices; vehicle=12.4±4.1) was 28.4 ± 6.4 min and the EC50 (KCC4) was over 100 µM. For the same compound, the “reduction in Cl−” value (hippocampal neurons; 15 min, from EGABA by Nernst equation) was 2.2 ± 0.6 mM and the “EGABA at 15 min” value (hippocampal neurons; from −75±3.1 at 0 min, bumetanide and TTX present) was −85.1±4.2 mV.
